Data as given in US7390630B1, “Method of identifying a compound that selectively inhibits cytokine-stimulated T cell induced production of TNF-alpha by monocytes” (Mathilda and Terence Kennedy Institute of Rheumatology Trust, priority 1999, dated 2008).
Values joined by “and” are separate entries in the source; they are usually repeats but may differ in a detail not shown here. Equal values may be shown once.

How the values were obtained:
Assay type in all cases: cell-based, Human
[1] = tested on: monocyte TNFα production induced by RA CD3+ enriched cells; assay: Monocyte TNFα production induced by fixed RA synovial CD3+ enriched T cells; settings: for TNFα: LY294002 50 μM 30 min, Wortmannin 500 nM 30 min, AKTA 5 mM 30 min, Rapamycin 10 μM 60 min, untreated control 686 ± 59, mean ±SD; for TNFα / Percent change: RA T cells:monocytes 5:1, 18 h; for Percent change: change of TNFα versus untreated control, LY294002 50 μM, Wortmannin 500 nM, Rapamycin 10 μM
Experimental: (§1) Rheumatoid arthritis (RA) mononuclear cells were obtained from synovial tissue specimens provided by the Rheumatology Clinic, Charing Cross Hospital, London, UK. Tissue was teased into small pieces and digested in medium containing 0.15 mg/ml DNase type 1 (Sigma, UK) and 5 mg/ml collagenase (Roche, UK) for 1 to 2 hours at 37° C. After passing cells through nylon mesh to exclude cell debris, cells were washed and resuspended in RPMI medium (Biohittaker, Verviers, Belgium) (containing 10% heat-inactivated FCS) at a density of 1×10^6 cells/ml and used immediately.
CD3+ enriched cells were isolated from RA synovial mononuclear cells by direct, positive selection using Dynabeads (Dynal UK Ltd, Wirral, UK) coated with anti-CD3 monoclonal antibodies (anti-CD3 mAbs). Briefly, mononuclear cells (1×10^7) were cultured with 100 μl anti-CD3 mAb-coated Dynabeads for 20 minutes at 4° C. under constant rotation. Cells attached to beads were isolated using a magnetic particle concentrator (Dynal, Merseyside, UK) and cultured for 6 hours at 37° C. Detached cells were removed from magnetic beads and washed three times using the magnetic particle concentrator.
This technique allowed for isolation of CD3+ cells, yielding cells of high purity (>99%) and viability (>95%). Following isolation, CD3+ enriched cells were washed three times in RPMI medium containing 1% heat-inactivated FCS, fixed for 1 minute at 0° C. in phosphate-buffered saline (PBS) containing 0.05% glutaraldehyde, and neutralized with an equivalent volume of T lymphocyte neutralizing buffer containing 0.2 M glycine. Following a further three washes, the fixed CD3+ cells were resuspended (at a concentration of 2×10^6 cell/ml) in RPMI medium containing 5% heat-inactivated FCS, and stored for up to 7 days at 4° C. until used. Prior to use, CD3+ enriched cells were washed twice in complete medium.
Monocytes were cultured at 1×10^6 cells/ml in RPMI 1640 medium (containing 5% heat-inactivated FCS) in round-bottomed 96-well culture plates (Nunc Life Technologies Ltd., Paisley, Scotland) in the presence of fixed T cells at varying T-cell/monocyte ratios ranging from 1:1 to 7:1 (as indicated). In some experiments, a semi-permeable membrane insert (Nunc Life Technologies Ltd., Paisley, Scotland) was fitted into the culture wells to physically separate the monocytes from the T cells. In all experiments, efficient fixation of T cells was tested by incubating an aliquot of T-cells (7×10^6 cells/ml) in the absence of monocytes and assaying the amount of TNFα released by the cells under these conditions. Lipopolysaccharide (LPS, 10 ng/ml) was included in experiments as a positive control for monocyte cytokine production.
(§2) Reagents for the TNFα ELISA were provided by Dr. W. Buurman (Rijks Universiteit Limburg, Maastricht, Netherlands). The ELISA was performed using immobilized anti-TNFα mAb 61E71. and developed using a rabbit anti-TNFα polyclonal antibody. An alternative ELISA for TNFα is commercially available from Pharmingen. The rabbit polyclonal antibody was detected using a peroxidase-conjugated goat anti-rabbit IgG (H+L) (Jackson Immunoresearch Laboratories Inc., Westgrove, PE, USA) followed by an appropriate substrate. The sensitivity range of the assay was 1.6 to 5000 pg/ml.
For monocyte/T-cell co-culture experiments, monocytes were cultured with relevant enzyme inhibitors at 37° C. for varying periods of time (see legend to Table 2) prior to co-culture with fixed T-cells for 18 hours. Supernatants were harvested and assayed for presence of TNFα by ELISA. Cell suspensions were taken for determination of cell viability. […]
The effect of wortmannin and LY294002 was also studied on monocyte TNFα production induced by RA CD3+ ve enriched cells (see Table 2). Normal monocytes isolated by elutriation were treated with selective enzyme inhibitors for the designated times prior to co-culture with fixed rheumatoid CD3+ T cells at a ratio 5:1 (T cells to monocytes) for 18 hours. […]

[2] = tested on: monocyte TNFα production induced by anti-CD3 antibody stimulated T-cells (Ttcr cells); assay: Ttcr cell-induced TNFα production by monocytes (co-culture, ELISA); settings: for IC50: Homo sapiens, Monocyte, T cells:monocytes 5:1, 18 h co-culture, read-out: IC50, inhibition of monocyte TNFα production induced by Ttcr cells
Experimental: Human peripheral blood T cells and monocytes were isolated from single donor plateletpheresis residues (purchased from the North London Blood Transfusion service, Colindale, GB). Mononuclear cells were isolated by Ficoll/Hypaque centrifugation (specific density 1.077 g/ml, Nycomed Pharma AS, Oslo, Norway), prior to cell separation in a Beckman JE6 elutriator. Elutriation was performed in culture medium containing 1% heat-inactivated foetal calf serum (FCS) using methods known in the art (see Sebbag et al., 1997, Parry et al., 1997). T cell and monocyte purity were assessed by flow cytometry (see Sebbag et al., 1997).
Ttcr cells: Ttcr cells were prepared from elutriation enriched T cells by resuspending the cells at a density of 10^6 cells/ml in RPMI 1640 (containing 10% heat inactivated AB+ human serum (Biowhittaker, UK). Following resuspension, the cells were incubated (at 37° C. in a 5% CO2/95% humidified incubator) in 6-well culture plates with immobilised anti-CD3 monoclonal antibodies for 24 hours (OKT3, ATCC, Maryland, USA), the antibodies having previously been coated on to the 6-well culture plates at 10 μg/ml (overnight at 4° C.).
Following completion of the culture period, the Tck and Ttcr cells were harvested and washed three times in RPMI medium containing 1% heat-inactivated fetal calf serum (FCS), prior to fixation for 1 minute at 0° C. in PBS containing 0.05% glutaraldehyde, and neutralized with an equivalent volume of T lymphocyte neutralizing buffer containing 0.2 M glycine. […]
(§3) Reagents for the TNFα ELISA were provided by Dr. W. Buurman (Rijks Universiteit Limburg, Maastricht, Netherlands). […] The rabbit polyclonal antibody was detected using a peroxidase-conjugated goat anti-rabbit IgG (H+L) (Jackson Immunoresearch Laboratories Inc., Westgrove, PE, USA) followed by an appropriate substrate. […]
(§4) Monocytes were treated with M-CSF for 2 days as described above, infected with adenovirus containing either an insert encoding IκBα (AdvIκBα) or no insert (Adv0). The effect of IκBα over-expression on T cell-induced monocyte (ratio 5:1) TNFα production was then determined.

[3] = tested on: TNFα production in osteoarthritis (OA) synovial cultures; assay: TNFα production in osteoarthritis (OA) synovial cultures; settings: 48 h
Experimental: as §1, with “Osteoarthritis (OA)” for “Rheumatoid arthritis (RA)”, “As in the case of RA cells (above), OA synovial tissue” for “Tissue”, “(BioWhittaker,” for “(Biohittaker,”
as §2
The effect of the PI3 kinase inhibitor, LY294002, was studied on TNFα production in osteoarthritis (OA) synovial cultures. OA synovial joint cultures were cultured for 48 hours in the presence of increasing concentrations of the PI3 kinase inhibitor, LY294002. Culture supernatants were then harvested and assayed for TNFα (pg/ml) by ELISA.

[4] = tested on: monocyte TNFα production induced by cytokine stimulated T cells (Tck cells); assay: Tck cell-induced TNFα production by monocytes (co-culture, ELISA); settings: T cells stimulated with IL-2, IL-6 and TNFα; results not shown
Experimental: Human peripheral blood T cells and monocytes were isolated from single donor plateletpheresis residues (purchased from the North London Blood Transfusion service, Colindale, GB). Mononuclear cells were isolated by Ficoll/Hypaque centrifugation (specific density 1.077 g/ml, Nycomed Pharma AS, Oslo, Norway), prior to cell separation in a Beckman JE6 elutriator. Elutriation was performed in culture medium containing 1% heat-inactivated foetal calf serum (FCS) using methods known in the art (see Sebbag et al., 1997, Parry et al., 1997). T cell and monocyte purity were assessed by flow cytometry (see Sebbag et al., 1997). […]
as §3, §4

## O=c1cc(N2CCOCC2)oc2c(-c3ccccc3)cccc12 [LY294002]
[1]
  TNFα: 883 ± 304 pg/mL and 883 ± 38 pg/mL
[1]; AKTA 5 mM
  Percent change: +29%
[2]
  IC50: 70 nM
[3]; culture OA 1833, LY 294002 0.005 μM, 0.0 μM: 224 ± 15
  TNFα production: 236 ± 11 pg/mL
[3]; culture OA 1833, LY 294002 0.05 μM, 0.0 μM: 224 ± 15
  TNFα production: 235 ± 22 pg/mL
[3]; culture OA 1833, LY 294002 0.5 μM, 0.0 μM: 224 ± 15
  TNFα production: 233 ± 28 pg/mL
[3]; culture OA 1833, LY 294002 5.0 μM, 0.0 μM: 224 ± 15
  TNFα production: 202 ± 15 pg/mL
[3]; culture OA 1833, LY 294002 50.0 μM, 0.0 μM: 224 ± 15
  TNFα production: 204 ± 5 pg/mL
[3]; culture OA 1840, LY 294002 0.005 μM, 0.0 μM: 635 ± 19
  TNFα production: 612 ± 13 pg/mL
[3]; culture OA 1840, LY 294002 0.05 μM, 0.0 μM: 635 ± 19
  TNFα production: 642 ± 32 pg/mL
[3]; culture OA 1840, LY 294002 0.5 μM, 0.0 μM: 635 ± 19
  TNFα production: 597 ± 38 pg/mL
[3]; culture OA 1840, LY 294002 5.0 μM, 0.0 μM: 635 ± 19
  TNFα production: 651 ± 50 pg/mL
[3]; culture OA 1840, LY 294002 50.0 μM, 0.0 μM: 635 ± 19
  TNFα production: 600 ± 31 pg/mL
[3]; culture OA 1851, LY 294002 0.005 μM, 0.0 μM: 227 ± 19
  TNFα production: 236 ± 13 pg/mL
[3]; culture OA 1851, LY 294002 0.05 μM, 0.0 μM: 227 ± 19
  TNFα production: 250 ± 12 pg/mL
[3]; culture OA 1851, LY 294002 0.5 μM, 0.0 μM: 227 ± 19
  TNFα production: 237 ± 63 pg/mL
[3]; culture OA 1851, LY 294002 5.0 μM, 0.0 μM: 227 ± 19
  TNFα production: 233 ± 15 pg/mL
[3]; culture OA 1851, LY 294002 50.0 μM, 0.0 μM: 227 ± 19
  TNFα production: 246 ± 31 pg/mL
[3]; culture OA 1861, LY 294002 0.005 μM, 0.0 μM: 155 ± 42
  TNFα production: 141 ± 33 pg/mL
[3]; culture OA 1861, LY 294002 0.05 μM, 0.0 μM: 155 ± 42
  TNFα production: 127 ± 5 pg/mL
[3]; culture OA 1861, LY 294002 0.5 μM, 0.0 μM: 155 ± 42
  TNFα production: 145 ± 29 pg/mL
[3]; culture OA 1861, LY 294002 5.0 μM, 0.0 μM: 155 ± 42
  TNFα production: 131 ± 44 pg/mL
[3]; culture OA 1861, LY 294002 50.0 μM, 0.0 μM: 155 ± 42
  TNFα production: 215 ± 9 pg/mL
[3]; culture OA 1862, LY 294002 0.005 μM, 0.0 μM: 141 ± 35
  TNFα production: 166 ± 31 pg/mL
[3]; culture OA 1862, LY 294002 0.05 μM, 0.0 μM: 141 ± 35
  TNFα production: 171 ± 55 pg/mL
[3]; culture OA 1862, LY 294002 0.5 μM, 0.0 μM: 141 ± 35
  TNFα production: 185 ± 7 pg/mL
[3]; culture OA 1862, LY 294002 5.0 μM, 0.0 μM: 141 ± 35
  TNFα production: 226 ± 100 pg/mL
[3]; culture OA 1862, LY 294002 50.0 μM, 0.0 μM: 141 ± 35
  TNFα production: 205 ± 19 pg/mL
[3]; varying concentrations, five different samples
  effect on TNFα production in cultures of OA synovial tissue: no significant effect

## CO[C@H]1C[C@@H]2CC[C@@H](C)[C@@](O)(O2)C(=O)C(=O)N2CCCC[C@H]2C(=O)O[C@H]([C@H](C)C[C@@H]2CC[C@@H](O)[C@H](OC)C2)CC(=O)[C@H](C)/C=C(\C)[C@@H](O)[C@@H](OC)C(=O)[C@H](C)C[C@H](C)/C=C/C=C/C=C/1C [Rapamycin, rapamycin]
[4]
  effect on monocyte TNFα production induced by cytokine stimulated T cells: no effect
[1]; AKTA 5 mM, rapamycin 10 μM, T cells:monocytes 5:1
  effect on TNFα production in monocytes stimulated by RA T-cells: no significant effect
[1]
  TNFα: 399 ± 21 pg/mL
[1]; AKTA 5 mM
  Percent change: −42%
[2]; results not shown
  effect on monocyte TNFα production induced by anti-CD3 antibody stimulated T cells: no effect

## COC[C@H]1OC(=O)c2coc3c2[C@@]1(C)C1=C(C3=O)[C@@H]2CCC(=O)[C@@]2(C)C[C@H]1OC(C)=O [Wortmannin, wortmannin]
[1]
  TNFα: 7333 ± 304 pg/mL
[1]; listed as wortmannin
  TNFα: 7333 ± 304 pg/mL
[1]; AKTA 5 mM
  Percent change: +968%
[2]
  IC50: 0.05 nM
